Experimental data taken from article PMC10041525, “New Dual Inhibitors of Bacterial Topoisomerases with Broad-Spectrum Antibacterial Activity and In Vivo Efficacy against Vancomycin-Intermediate Staphylococcus aureus” (Journal of Medicinal Chemistry, 2023).
Values joined by “and” are separate entries in the source; they are usually repeats but may differ in a detail not shown here. Equal entries are not always repeated.

Columns and labels:
Assay type in all cases: cell-based
[1] = test system: 100 A. baumannii strains (50 MDR, 50 non-MDR); assay: MIC broth microdilution at IHMA Europe, panel of 100 strains
[2] = test system: P. aeruginosa ATCC 27853; assay: IHMA QC MIC
[3] = test system: E. coli ATCC 25922; assay: IHMA QC MIC

Substance: piperacillin/tazobactam [Piperacillin Tazobactam]
- MIC ([1]; A. baumannii IHMA 2193607, Venezuela 2020, MDR): >128 µg/mL
- MIC ([1]; A. baumannii IHMA 2195460, Italy 2020, MDR): >128 µg/mL
- MIC ([1]; A. baumannii IHMA 2196914, South Africa 2020, MDR): >128 µg/mL
- MIC ([1]; A. baumannii IHMA 2196959, South Africa 2020, MDR): >128 µg/mL
- MIC ([1]; A. baumannii IHMA 2203763, Spain 2020, MDR): >128 µg/mL
- MIC ([1]; A. baumannii IHMA 2205144, Korea, South 2020, MDR): >128 µg/mL
- MIC ([1]; A. baumannii IHMA 2206459, Taiwan 2020, MDR): >128 µg/mL
- MIC ([1]; A. baumannii IHMA 2206507, Taiwan 2020, Non-MDR): ≤0.25 µg/mL
- MIC ([1]; A. baumannii IHMA 2212575, Hungary 2020, Non-MDR): 4 µg/mL
- MIC ([1]; A. baumannii IHMA 2215307, Hong Kong 2020, Non-MDR): 1 µg/mL
- MIC ([1]; A. baumannii IHMA 2216586, Taiwan 2020, MDR): >128 µg/mL
- MIC ([1]; A. baumannii IHMA 2223200, Colombia 2020, Non-MDR): ≤0.25 µg/mL
- MIC ([1]; A. baumannii IHMA 2224017, Panama 2020, MDR): >128 µg/mL
- MIC ([1]; A. baumannii IHMA 2224303, Panama 2020, Non-MDR): 16 µg/mL
- MIC ([1]; A. baumannii IHMA 2231797, Greece 2020, MDR): >128 µg/mL
- MIC ([1]; A. baumannii IHMA 2233099, Guatemala 2020, MDR): >128 µg/mL
- MIC ([1]; A. baumannii IHMA 2233430, Kazakhstan 2020, MDR): >128 µg/mL
- MIC ([1]; A. baumannii IHMA 2233548, Kazakhstan 2020, Non-MDR): ≤0.25 µg/mL
- MIC ([1]; A. baumannii IHMA 2238964, Thailand 2020, MDR): >128 µg/mL
- MIC ([1]; A. baumannii IHMA 2239052, Thailand 2020, Non-MDR): ≤0.25 µg/mL
- MIC ([1]; A. baumannii IHMA 2261047, Belgium 2020, MDR): >128 µg/mL
- MIC ([1]; A. baumannii IHMA 2261633, Canada 2020, Non-MDR): ≤0.25 µg/mL
- MIC ([1]; A. baumannii IHMA 2274234, South Africa 2020, MDR): >128 µg/mL
- MIC ([1]; A. baumannii IHMA 2274364, South Africa 2020, MDR): >128 µg/mL
- MIC ([1]; A. baumannii IHMA 2275237, Chile 2020, Non-MDR): ≤0.25 µg/mL
- MIC ([1]; A. baumannii IHMA 2275751, Jordan 2020, MDR): >128 µg/mL
- MIC ([1]; A. baumannii IHMA 2316205, United States 2020, MDR): >128 µg/mL
- MAX (maximum MIC; all strains inhibited) ([1]; MDR n = 50): >128 µg/mL
- MIC50 ([1]; MDR n = 50): >128 µg/mL
- MIC90 ([1]; MDR n = 50): >128 µg/mL
- MIN (minimum MIC) ([1]; MDR n = 50): >128 µg/mL
- Percentage I ([1]; MDR n = 50): 0%
- Percentage R ([1]; MDR n = 50): 100%
- Percentage S ([1]; MDR n = 50): 0%
- Cumulative % at MIC ([1]; MDR n=50, MIC >128 µg/mL): 100%
- No. of isolates at MIC ([1]; MDR n=50, MIC >128 µg/mL): 50
- MAX (maximum MIC; all strains inhibited) ([1]; all isolates n = 100): >128 µg/mL
- MIC50 ([1]; all isolates n = 100): 16 µg/mL
- MIC90 ([1]; all isolates n = 100): >128 µg/mL
- MIN (minimum MIC) ([1]; all isolates n = 100): ≤0.25 µg/mL
- Percentage I ([1]; all n = 100, CLSI breakpoints): 0%
- Percentage R ([1]; all n = 100, CLSI breakpoints): 50%
- Percentage S ([1]; all n = 100, CLSI breakpoints): 50%
- Cumulative % at MIC ([1]; all n=100, MIC 0.5 µg/mL): 36%
- No. of isolates at MIC ([1]; all n=100, MIC 0.5 µg/mL): 1
- Cumulative % at MIC ([1]; all n=100, MIC 1 µg/mL): 37%
- No. of isolates at MIC ([1]; all n=100, MIC 1 µg/mL): 1
- Cumulative % at MIC ([1]; all n=100, MIC 2 µg/mL): 39%
- No. of isolates at MIC ([1]; all n=100, MIC 2 µg/mL): 2
- Cumulative % at MIC ([1]; all n=100, MIC […] µg/mL): 50%
- No. of isolates at MIC ([1]; all n=100, MIC […] µg/mL): 3
- Cumulative % at MIC ([1]; all n=100, MIC >128 µg/mL): 100%
- No. of isolates at MIC ([1]; all n=100, MIC >128 µg/mL): 50
- Cumulative % at MIC ([1]; all n=100, MIC ≤[…]): 35%
- No. of isolates at MIC ([1]; all n=100, MIC ≤[…]): 35
- MAX (maximum MIC) ([1]; non-MDR n = 50): 16 µg/mL
- MIC50 ([1]; non-MDR n = 50): ≤0.25 µg/mL
- MIC90 ([1]; non-MDR n = 50): 4 µg/mL
- MIN (minimum MIC) ([1]; non-MDR n = 50): ≤0.25 µg/mL
- Percentage I ([1]; non-MDR n = 50): 0%
- Percentage R ([1]; non-MDR n = 50): 0%
- Percentage S ([1]; non-MDR n = 50): 100%
- Cumulative % at MIC ([1]; non-MDR n=50, MIC 0.5 µg/mL): 72%
- No. of isolates at MIC ([1]; non-MDR n=50, MIC 0.5 µg/mL): 1
- Cumulative % at MIC ([1]; non-MDR n=50, MIC 1 µg/mL): 74%
- No. of isolates at MIC ([1]; non-MDR n=50, MIC 1 µg/mL): 1
- Cumulative % at MIC ([1]; non-MDR n=50, MIC 2 µg/mL): 78%
- No. of isolates at MIC ([1]; non-MDR n=50, MIC 2 µg/mL): 2
- Cumulative % at MIC ([1]; non-MDR n=50, MIC […] µg/mL): 100%
- No. of isolates at MIC ([1]; non-MDR n=50, MIC […] µg/mL): 3
- Cumulative % at MIC ([1]; non-MDR n=50, MIC ≤[…]): 70%
- No. of isolates at MIC ([1]; non-MDR n=50, MIC ≤[…]): 35
- MIC (QC, repeated tests) [2]: 4 µg/mL and 8 µg/mL
- MIC (QC, repeated tests) [3]: 2 µg/mL
